Assay results reported in patent publication US11014943B2, “Azetidine derivative” (CHIA TAI TIANQING PHARMACEUTICAL GROUP CO., LTD., priority 2017, dated 2021).

Legend:
[1] = Liver microsome stability test, human; assay type: in vitro ADME; settings: human liver microsomes; human (H) liver microsome; read-out: Liver microsome stability (T1/2, min)
Experimental: (§1) A test compound was incubated with CD-1 mouse liver microsome, SD rat liver microsome, and human liver microsome, respectively, to evaluate the stability of the test compound.
(§2) Preparation of a solution sample of the test compound: 10 mM solution (5 μL) of a compound prepared in the Example in DMSO was added to a mixed solvent (450 μL) of DMSO (45 μL), methanol and water (a volume ratio of methanol to water was 1:1) to prepare a 100 μM solution of the test compound; and 50 μL of the 100 μM solution of the test compound was added to 450 μL of 100 mM potassium phosphate buffer to obtain a 10 μM solution of the test compound.
(§3) The 10 μM solution of the test compound was pre-incubated with the microsome from the above three species for 10 minutes, respectively, and then a working solution of a reduced nicotinamide adenine dinucleotide phosphate (NADPH) regeneration system was added to the incubation plate at each time point to initiate the reaction, and finally a stop solution (100% ACN) was added to the reaction plate to terminate the reaction at 0, 5, 10, 20, 30 and 60-minute. The test compound was determined by LC-MS/MS method.

MM1.S cells = assay: In vitro anti-proliferation test on MM1.S cells (CellTiter-Glo); assay type: cell-based; settings: Homo sapiens, 48 h, 2 days incubation, cell viability
Experimental: This test was aimed to investigate the inhibitory effect of a compound on cell proliferation by determining the effect of the compound on cell viability in tumor cell line MM1.S in vitro.
MM1.S cells were seeded into a black 96-well cell culture plate at a density of 7,000 cells per well, and then the plate was incubated overnight in an incubator with 5% CO2 and 100% relative humidity at 37° C. A solution of a test compound in DMSO was added to the cell culture wells at a certain concentration (0.3 to 2000 nM), and then the culture plate was placed back to the incubator, and a vehicle control (containing DMSO with no compound) and a blank control were provided.
The culture plate was incubated in the incubator with 5% CO2 and 100% relative humidity at 37° C. for 2 days. The sample was treated using the Promega CellTiter-Glo Luminescent Cell Viability Assay Kit (Promega-G7571) standard method, and a luminescent signal was detected on the SpectraMax i3x of Molecular Devices plate reader. The inhibition rate of the test compound was calculated through the following equation using original data: […]
RLU represents a relative luminescence intensity.

MDR1 = assay: Cell membrane permeability test on MDR1-MDCK II cells; assay type: in vitro ADME; settings: dog; for Papp A→B at 150 min, 2 μM / Papp B→A at 150 min, 2 μM: pH=7.4; for efflux ratio at 150 min, 2 μM: pH 7.4, Papp B to A/Papp A to B
Experimental: Cell membrane permeability of a test compound was evaluated on MDR1-MDCK II cells.
A test compound (10 mM solution of the compound in DMSO) was diluted with a transfer buffer (HBSS with 10 mM Hepes, pH=7.4) to prepare a sample having a final concentration of 2 μM, followed by bidirectional (A-B and B-A) administration. After administration, the cell plate was incubated in an incubator with 5% CO2 and a saturated humidity at 37° C. for 150 minutes. After the 150-minute incubation, the sample was collected, and the concentration of the test compound in the transfer sample was semi-quantitatively determined by LC/MS/MS method.

[2] = Liver microsome stability test, mouse; assay type: in vitro ADME; settings: mouse liver microsomes; CD-1 mouse (M) liver microsome; read-out: Liver microsome stability (T1/2, min)
Experimental: as §1, §2, §3

[3] = Liver microsome stability test, rat; assay type: in vitro ADME; settings: rat liver microsomes; SD rat (R) liver microsome; read-out: Liver microsome stability (T1/2, min)
Experimental: as §1, §2, §3

SMILES | half-life [1] [min] | IC50 (MM1.S cells) [nM] | Papp A→B at 150 min, 2 μM (MDR1) [×10⁻⁶ cm/s] | Papp B→A at 150 min, 2 μM (MDR1) [×10⁻⁶ cm/s] | efflux ratio at 150 min, 2 μM (MDR1) | half-life [2] [min] | half-life [3] [min]
CC(C)CC(NC(=O)[C@H](Cc1ccccc1)NC(=O)[C@@H]1CCN1c1ccc(F)cc1)B(O)O (single isomer, unassigned) [WX-193] | 4.8 | 8.2 | 0.1 | 13.1 | 131 | 2.7 | 4.6
CC(C)CC(NC(=O)CNC(=O)[C@@H]1CCN1c1ccc(F)cc1)B(O)O (single isomer, unassigned) [WX-301] | 74.3 | 5.8 | – | – | – | 43.5 | 42.1
CC(C)CC(NC(=O)[C@H](C)NC(=O)[C@@H]1CCN1c1ncc(F)cn1)B(O)O (single isomer, unassigned) [WX-313] | > 145 | 24.5 | 0.2 | 1.29 | 7.16 | 52.5 | 57.2
CC(C)CC(NC(=O)CNC(=O)[C@@H]1CCN1c1ccc(F)cn1)B(O)O (single isomer, unassigned) [WX-317] | 77 | 32 | 0.01 | 0.05 | 5 | 27.1 | 35.5
CC(C)CC(NC(=O)CNC(=O)[C@@H]1CCN1c1ccc(F)cc1F)B(O)O (single isomer, unassigned) [WX-333] | 67.4 | 1 | 0.38 | 7.32 | 19.3 | 67.4 | 43.1
CC(C)CC(NC(=O)[C@H](Cc1ccccc1)NC(=O)[C@@H]1CCN1c1nccc(-c2ccccc2)n1)B(O)O (some centres unmarked) [WX-174] | 3.5 | 5.8 | 0.44 | 18.4 | 41.8 | 0.8 | 1.6
CC(C)CC(NC(=O)[C@H](CC1CC1)NC(=O)[C@@H]1CCN1c1ncc(F)cn1)B(O)O (some centres unmarked) [WX-260] | 108 | 11 | 0.3 | 5.1 | 17 | 84.8 | > 145
CC(C)CC(NC(=O)[C@H](CC1CC1)NC(=O)[C@@H]1CCN1c1ccc(C(F)(F)F)cn1)B(O)O (some centres unmarked) [WX-306] | 17.8 | 8.2 | 0.3 | 17.8 | 59.3 | 14 | 37.4
CC(C)CC(NC(=O)[C@H](CC1CC1)NC(=O)[C@@H]1CCN1c1nc(C(F)(F)F)cs1)B(O)O (some centres unmarked) [WX-308] | 27.4 | 8.9 | 0.2 | 15.3 | 76.5 | 20.1 | 26.8
CC(C)CC(NC(=O)CNC(=O)[C@@H]1CCN1c1nc(C(F)(F)F)cs1)B(O)O (some centres unmarked) [WX-327] | 75 | 24.2 | 0.24 | 2.24 | 9.33 | 37.7 | 26.5
CC(C)CC(NC(=O)CNC(=O)[C@@H]1CCN1c1ccc(C(F)(F)F)cn1)B(O)O (some centres unmarked) [WX-329] | 51.5 | 11.5 | 0.27 | 3.74 | 13.8 | 40.3 | 43.3
CC(C)CC(NC(=O)CNC(=O)[C@@H]1CCN1c1ccc(C(F)(F)F)cc1Cl)B(O)O (some centres unmarked) [WX-351] | – | 45.9 | – | – | – | – | –
CC(C)CC(NC(=O)CNC(=O)[C@@H]1CCN1c1ccc(C(F)(F)F)cc1F)B(O)O (some centres unmarked) [WX-355] | – | 28.8 | – | – | – | – | –
CC(C)CC(NC(=O)CNC(=O)[C@@H]1CCN1c1ccc(C#N)cc1F)B(O)O (some centres unmarked) [WX-365] | – | 90.6 | – | – | – | – | –
CC(C)CC(NC(=O)CNC(=O)[C@@H]1CCN1c1ccc(C(F)(F)F)nn1)B(O)O (some centres unmarked) [WX-367] | – | 183 | – | – | – | – | –
CC(C)CC(NC(=O)CNC(=O)[C@@H]1CCN1c1c(F)cc(Cl)cc1F)B(O)O (some centres unmarked) [WX-373] | – | 26.7 | – | – | – | – | –
CC(C)CC(NC(=O)CNC(=O)[C@@H]1CCN1c1ncc(F)cc1F)B(O)O (some centres unmarked) [WX-379] | – | 24 | – | – | – | – | –
CC(C)CC(NC(=O)CNC(=O)[C@@H]1CCN1c1ccc(F)cc1Cl)B(O)O (some centres unmarked) [WX-381] | – | 119 | – | – | – | – | –
CC(C)CC(NC(=O)CNC(=O)[C@@H]1CCN1c1ccc(Cl)cc1C(F)(F)F)B(O)O (some centres unmarked) [WX-385] | – | 104 | – | – | – | – | –
CC(C)CC(NC(=O)CNC(=O)[C@@H]1CCN1c1cc(F)c(F)cc1F)B(O)O (some centres unmarked) [WX-391] | – | 5.4 | – | – | – | – | –
